Results taken from patent publication US7029696B2, “Delivery and activation through liposome incorporation of diaminocyclohexane platinum(II) complexes” (priority 1996, dated 2006).
“Also recorded” adds a separate entry of the source.

What was measured:
[1] = Intraliposomal stability of Pt-complexes by HPLC; type: physicochemical; details: for intraliposomal stability (in words): DMPC:DMPG liposomes, saline or PBS; for percentage of intact Pt-complex: in liposomes, 6 h after liposome preparation; for NDDP stability (%): liposomal NDDP, lipids as dry powder
Procedure: Stability of the different Pt-complexes incorporated in liposomes was determined as described previously by comparing the HPLC profiles as a function of time. In brief, aliquoted samples of liposome suspension were diluted (7×) with methanol at 0, 2, 6, and 24 h after liposome preparation, and each sample was then monitored by HPLC using chromega-8 bond column (4.6 mm×25 cm, 8 μm: ES Industries, NJ) and 10% water-methanol as eluant. The flow rate was 1 ml/min, and the complexes were detected by UV at 224 nm wavelength.

[2] = test system: intraperitoneal L1210 mouse leukemia; assay: In vivo antitumor activity of liposomal Pt-complexes
Procedure: In vivo. The in vivo antitumor activity of liposomal Pt-complexes was assessed against intraperitoneal L1210 mouse leukemia. […] The results were expressed as the median survival of treated animals divided by the median survival of control animals ×100 (% T/C).

[3] = Liposome entrapment (entrapment efficiency, free drug crystals by optic microscopy); type: physicochemical; details: generated within the liposome membranes from NDDP
Text: NDDP and its two isomers, B10 and L10 were formulated in liposomes composed of combinations of various lipids including DMPC, DMPG, DOPC, DOPG, PA, PE, and PS. The liposomes were formed by reconstituting preliposomal powders containing the Pt-complex and the lipids with unbuffered 0.9% NaCl aqueous solution (saline) or phosphate-buffered saline (PBS). […] The median size of the multilamellar vesicles was 1–2 μm in all preparations. The median size of the small-size liposomes prepared by ultrasonication of multilamellar vesicles was 50–100 nm.

[4] = Solubility of DACH-Pt-Cl2; type: physicochemical
[5] = Tracking of liposomal NDDP degradation by 195Pt NMR and HPLC; type: physicochemical
Procedure: To characterize the active intermediate(s) in the reaction cascade of L-NDDP reconstituted in saline (0.9% NaCl), tracking experiments using ^195Pt NMR spectra in combination with ^31P NMR were performed. Samples 1–3 were prepared using the lipids DMPC and DMPG purchased in chloroform solution, while samples 4–8 were prepared using lipids in dry powder. In samples 1–3, the chloroform was initially evaporated in a rotavapor. The lipid film was dissolved in t-butanol containing the NDDP in solution. An aliquot of this solution was kept at 40° C. for 6 h and then lyophilized and extracted with methanol (sample 3). The remaining was lyophilized immediately, thus resulting in a preliposomal powder, which was reconstituted with saline to produce the liposome suspension. The liposome suspension was kept at room temperature for 6 hours. The Pt compounds and lipids were then extracted with chloroform (sample 1) or the sample was lyophilized to eliminate the water and the powder dissolved in methanol (sample 2) (see FIG. 6). Samples 4, 5, and 6 were prepared by complete evaporation of solvents after keeping the samples at 40° C. for 6 h, and redissolving them in methanol. Samples 7 and 8 were prepared by lyophilization of water for 1–2 d and redissolution in methanol. All samples were prechecked by HPLC before tracking with NMR. Chemical shifts of the products are expressed in parts-per-million relative to Na2PtCl6 in ^195Pt and DMPC in ^31P NMR.

[6] = liposomal, DMPC:DMPG 7:3, lipids in chloroform, reconstituted in PBS, 25 mg/kg i.p. day 1
[7] = liposomal, DMPC:DMPG 7:3, lipids in chloroform, reconstituted in PBS, 50 mg/kg i.p. day 1
[8] = liposomal, DMPC:DMPG 7:3, lipids in chloroform, reconstituted in PBS, 100 mg/kg i.p. day 1
[9] = liposomal, DMPC:DMPG 7:3, lipids in chloroform, reconstituted in PBS, 150 mg/kg i.p. day 1
[10] = liposomal, DMPC:DMPG 7:3, lipids in chloroform, reconstituted in saline, 25 mg/kg i.p. day 1
[11] = liposomal, DMPC:DMPG 7:3, lipids in chloroform, reconstituted in saline, 50 mg/kg i.p. day 1
[12] = liposomal, DMPC:DMPG 7:3, lipids in chloroform, reconstituted in saline, 100 mg/kg i.p. day 1
[13] = liposomal, DMPC:DMPG 7:3, lipids in chloroform, reconstituted in saline, 150 mg/kg i.p. day 1
[14] = liposomal, lipids in chloroform, reconstituted in PBS
[15] = liposomal, lipids in chloroform, reconstituted in saline

Compound: CCCCCCCCCC(=O)[O][Pt][O]C(=O)CCCCCCCCC.N[C@@H]1CCCC[C@H]1N [L10]
- intraliposomal stability (in words) [1]: highly stable
- percentage of intact Pt-complex ([1]; reconstituted in PBS): 100%
- percentage of intact Pt-complex ([1]; reconstituted in saline): 93.1%
- % T/C [2, 6]: 114%
- % T/C [2, 7]: 100%
- % T/C [2, 8]: 100%
- % T/C [2, 9]: 100%
- % T/C [2, 10]: 100%
- % T/C [2, 11]: 157%
- % T/C [2, 12]: 178%
- % T/C [2, 13]: 123%
- antitumor activity (in words) [2, 14]: no significant antitumor activity
- optimal dose [2, 15]: 100 mg

Compound: dichloro(1,2-diaminocyclohexane) platinum(II) [DACH-Pt—Cl2]
- time the drug remains liposome-bound without leaking out and crystallizing [3]: at least 24 h
- solubility in dimethylformamide ([4]; dimethylformamide (DMF)): good solubility
- solubility in most organic solvents ([4]; most organic solvents): insoluble
- solubility in water ([4]; water): very low solubility; also recorded: lack of solubility

Compound: cis-bis-neodecanoato-trans-R,R-1,2-diaminocyclohexane platinum (II) [NDDP]
- original NDDP remaining ([1]; 24 h, DMPC:DMPG 7:3, NDDP:total lipid ratio 1:15 or 1:30): 25%
- initial NDDP present ([1]; 24 hours, DMPC:DMPG 7:3, NDDP:total lipid ratio 1:5 or 1:10): 85%
- intraliposomal stability (in words) [1]: rather unstable
- percentage of intact Pt-complex ([1]; reconstituted in PBS): 82.1%
- percentage of intact Pt-complex ([1]; reconstituted in saline): 43.7%
- NDDP stability (%) ([1]; saline pH 3.0, 10 min after reconstitution): 43%
- NDDP stability (%) ([1]; saline pH 3.0, 2 h after reconstitution): 15%
- NDDP stability (%) ([1]; saline pH 3.0, 6 h after reconstitution): 7%
- NDDP stability (%) ([1]; saline pH 5.0, 10 min after reconstitution): 80%
- NDDP stability (%) ([1]; saline pH 5.0, 1 h after reconstitution): 72%
- NDDP stability (%) ([1]; saline pH 5.0, 2 h after reconstitution): 67%
- NDDP stability (%) ([1]; saline pH 5.0, 6 h after reconstitution): 38%
- NDDP stability (%) ([1]; saline pH 7.0, 10 min after reconstitution): 100%
- NDDP stability (%) ([1]; saline pH 7.0, 2 h after reconstitution): 95%
- NDDP stability (%) ([1]; saline pH 7.0, 6 h after reconstitution): 92%
- NDDP transformed into the active Pt-species ([1]; saline pH 5.0, calculated amount of activated species (35 mg/kg of 50 mg/kg)): about 70%
- NDDP transformed into the active Pt-species ([1]; saline pH 7.0, calculated amount of activated species (10 mg/kg of 100 mg/kg)): 10%
- effect of liposome size on intraliposomal stability ([1]; ultrasonication of multilamellar vesicles, regardless of lipid composition): did not affect the intraliposomal stability
- % T/C [2, 6]: 114%
- % T/C [2, 7]: 171%
- % T/C [2, 8]: 200%
- % T/C [2, 9]: 150%
- % T/C [2, 10]: 157%
- % T/C [2, 11]: 211%
- % T/C [2, 12]: Toxic
- % T/C [2, 13]: Toxic
- optimal dose ([2]; liposomal, dry lipids, reconstituted with saline of pH 3.0): 25 mg/kg
- optimal dose ([2]; liposomal, dry lipids, reconstituted with saline of pH 5.0): 50 mg/kg
- optimal dose ([2]; liposomal, dry lipids, reconstituted with saline of pH 7.0): 100 mg/kg
- % T/C ([2]; liposomal, dry lipids, saline pH 3.0, 12.5 mg/kg, administered 6 h after reconstitution): 157%
- % T/C at the optimal dose ([2]; liposomal, dry lipids, saline pH 3.0, 25 mg/kg): 214%
- % T/C ([2]; liposomal, dry lipids, saline pH 3.0, 25 mg/kg, administered 10 min after reconstitution): 150%
- % T/C ([2]; liposomal, dry lipids, saline pH 3.0, 25 mg/kg, administered 2 h after reconstitution): 186%
- % T/C ([2]; liposomal, dry lipids, saline pH 3.0, 25 mg/kg, administered 6 h after reconstitution): 240%
- % T/C ([2]; liposomal, dry lipids, saline pH 3.0, 50 mg/kg, administered 6 h after reconstitution): Toxic
- % T/C ([2]; liposomal, dry lipids, saline pH 5.0, 12.5 mg/kg, administered 6 h after reconstitution): 186%
- % T/C ([2]; liposomal, dry lipids, saline pH 5.0, 25 mg/kg, administered 6 h after reconstitution): 200%
- % T/C at the optimal dose ([2]; liposomal, dry lipids, saline pH 5.0, 50 mg/kg): 271%
- % T/C ([2]; liposomal, dry lipids, saline pH 5.0, 50 mg/kg, administered 10 min after reconstitution): 133%
- % T/C ([2]; liposomal, dry lipids, saline pH 5.0, 50 mg/kg, administered 2 h after reconstitution): 216%
- % T/C ([2]; liposomal, dry lipids, saline pH 5.0, 50 mg/kg, administered 6 h after reconstitution): 270%
- % T/C ([2]; liposomal, dry lipids, saline pH 5.0, 100 mg/kg, administered 6 h after reconstitution): Toxic
- % T/C ([2]; liposomal, dry lipids, saline pH 7.0, 25 mg/kg, administered 6 h after reconstitution): 186%
- % T/C ([2]; liposomal, dry lipids, saline pH 7.0, 50 mg/kg, administered 6 h after reconstitution): 200%
- % T/C at the optimal dose ([2]; liposomal, dry lipids, saline pH 7.0, 100 mg/kg): 271%
- % T/C ([2]; liposomal, dry lipids, saline pH 7.0, 100 mg/kg, administered 10 min after reconstitution): 163%
- % T/C ([2]; liposomal, dry lipids, saline pH 7.0, 100 mg/kg, administered 2 h after reconstitution): 216%
- % T/C ([2]; liposomal, dry lipids, saline pH 7.0, 100 mg/kg, administered 6 h after reconstitution): 257%
- optimal dose [2, 14]: 100 mg/kg
- optimal dose [2, 15]: 50 mg/kg
- stability in the absence of DMPG ([5]; liposomes composed of only DMPC): completely preserved stability
- degradation of NDDP ([5]; sample 7: dry-powder lipids, saline pH 6.5–7.0, 6 h at room temperature): < 5%
- degradation of NDDP ([5]; sample 8: dry-powder lipids, acidic saline pH 3.0–4.0, in 10 min, yielding DACH-Pt—Cl2): 60–95%

Compound: CCCCCCC(C)(C)C(=O)[O][Pt][O]C(=O)C(C)(C)CCCCCC.N[C@@H]1CCCC[C@H]1N [B10]
- intraliposomal stability (in words) [1]: intermediate stability
- percentage of intact Pt-complex ([1]; reconstituted in PBS): 95.9%
- percentage of intact Pt-complex ([1]; reconstituted in saline): 85.0%
- % T/C [2, 6]: 114%
- % T/C [2, 7]: 114%
- % T/C [2, 8]: 142%
- % T/C [2, 9]: 163%
- % T/C [2, 10]: 114%
- % T/C [2, 11]: 128%
- % T/C [2, 12]: 228%
- % T/C [2, 13]: 163%
- antitumor activity (in words) [2, 14]: no significant antitumor activity
- optimal dose [2, 15]: 100 mg

Compound: N.N.[Cl][Pt][Cl] [Cisplatin, cis-dichlorodiamine-platinum(II), reference compound]
- % T/C ([2]; Table 2 comparator, 10 mg/kg i.p. day 1, printed in the Saline column): 142%
- % T/C ([2]; Table 3 comparator, 10 mg/kg, printed in the 6 h column): 150%
